# Counter-ions that a name gives are not always drawn. Like-named read-outs stand apart in the source and are kept apart here.
# What was measured:
# U-2OS/DX580 cells [1] = experiment: Acute cytotoxicity (release of LDH); assay type: cell-based, human; conditions: U-2OS/DX580 (resistant); 24 h, 5 µM
# Procedure: (§1) In each of the following experimental sets, cells were incubated with specific dilutions of NPs to reach a final concentration of 5 μM H2S-DOXO, or with 5 μM DOXO or H2S-DOXO, as reference. Samples under study were: free DOXO, free H2S-DOXO, NP-H2S-DOXO 3% PVP, and HA-NP-CTAB-H2S-DOXO. Acute cytotoxicity. Culture medium from 2 × 10^6 cellule was centrifuged at 12,000 g for 15 min to pellet cell debris, while cells were washed with PBS twice, detached with trypsin/EDTA (0.05/0.02% v/v), rinsed in 0.2 mL of 82.3 mM triethanolamine phosphate-HCl (pH 7.6), and sonicated in ice with 10 s (100 W, Sonicator Labsonic); 5 μL of cell lysate was used to measure the intracellular protein content (BCA1 kit). The activity of extracellular lactate dehydrogenase (LDH), considered as an index of DOXO acute cell damage, was measured on 50 μL of cell culture medium, incubated at 37 °C with […]. The same assay was performed on 5 μL of cell lysate, to measure intracellular LDH. The kinetics of NADH oxidation was followed for 6 min measuring the absorbance at 340 nm with a Synergy HTX 96-well reader (Bio-Tek Instruments). The kinetics was linear overtime. Results were expressed as % extracellular LDH/total (extracellular+intracellular) LDH.
# U-2OS cells [2] = experiment: Acute cytotoxicity (release of LDH); assay type: cell-based, human; conditions: U-2OS (sensitive); 24 h, 5 µM
# Procedure: as §1
# MCF-7 cells [3] = experiment: Acute cytotoxicity (release of LDH); assay type: cell-based, human; conditions: MCF-7 (sensitive); 24 h, 5 µM
# Procedure: as §1
# MDA-MB-231 cells [4] = experiment: Acute cytotoxicity (release of LDH); assay type: cell-based, human; conditions: MDA-MB-231 (resistant); 24 h, 5 µM
# Procedure: as §1
# JC cells [5] = experiment: Cell viability (ATPLite); assay type: cell-based, murine; conditions: JC (resistant); 72 h, 5 µM
# Procedure: (§2) In each of the following experimental sets, cells were incubated with specific dilutions of NPs to reach a final concentration of 5 μM H2S-DOXO, or with 5 μM DOXO or H2S-DOXO, as reference. Samples under study were: free DOXO, free H2S-DOXO, NP-H2S-DOXO 3% PVP, and HA-NP-CTAB-H2S-DOXO. Viability. 1 × 10^5 cells were seeded in 96 well plates and incubated for 72 h with DOXO, H2S-DOXO or the different NPs. Cell viability was evaluated using the ATPLite kit (PerkinElmer, Waltham, MA), as per manufacturer’s instructions, using a Synergy-HTX 96-well reader (Bio-Tek Instruments, Winooski, VT). The relative luminescence units (RLUs) of the untreated cells were considered 100%; the RLUs of the other experimental conditions were expressed as percentage versus untreated cells.
# K7M2 cells [6] = experiment: Cell viability (ATPLite); assay type: cell-based, murine; conditions: K7M2 (resistant); 72 h, 5 µM
# Procedure: as §2
# U-2OS/DX580 cells [7] = experiment: Cell viability (ATPLite); assay type: cell-based, human; conditions: U-2OS/DX580 (resistant); 72 h, 5 µM
# Procedure: as §2
# MDA-MB-231 cells [8] = experiment: Cell viability (ATPLite); assay type: cell-based, human; conditions: MDA-MB-231 (resistant); 72 h, 5 µM
# Procedure: as §2
# K7M2 tumor = tested on: K7M2 tumor; design: method as in PMID 31047947; conditions: cited from earlier work
# DU-145 cells = conditions: cited from earlier work
# JC cells [9] = experiment: Acute cytotoxicity (release of LDH); assay type: cell-based, murine; conditions: JC (resistant); 24 h, 5 µM
# Procedure: as §1
# K7M2 cells [10] = experiment: Acute cytotoxicity (release of LDH); assay type: cell-based, murine; conditions: K7M2 (resistant); 24 h, 5 µM
# Procedure: as §1
# [11] = design: method as in PMID 23973213; conditions: human serum; pseudo-first-order kinetics; cited from earlier work
# U-2OS cells [12] = experiment: Cell viability (ATPLite); assay type: cell-based, human; conditions: U-2OS (sensitive); 72 h, 5 µM
# Procedure: as §2
# MCF-7 cells [13] = experiment: Cell viability (ATPLite); assay type: cell-based, human; conditions: MCF-7 (sensitive); 72 h, 5 µM
# Procedure: as §2
# [14] = H2S-DOXO solubility in aqueous and organic solvent; assay type: physicochemical; conditions: room temperature (22–23 °C)
# Procedure: The solubility of H2S-DOXO in water/acetonitrile (60/40 v/v ratio), methanol, 0.1 M pH 7.2 phosphate buffer, propylene glycol, and benzyl alcohol was determined as follows: an excess of H2S-DOXO was added to the organic or aqueous solution (1 mL); after 2-h equilibration at room temperature (22–23 °C) in a sealed vial under 600 rpm magnetic stirring, the suspension was centrifuged at 1397× g for 10 min, and the supernatant solution analyzed by RP-HPLC. The time needed to reach equilibrium solubility was determined by analyzing samples of the equilibrating solution at different time points to establish constant drug solubility.
# [15] = In vitro drug release (dialysis method); assay type: physicochemical; conditions: PBS pH 7.4, 37 °C, reference: 20% propylene glycol aqueous solution
# Procedure: In vitro drug release. Release of H2S-DOXO from NPs was evaluated using the dialysis method. An aliquot of HA-NP-CTAB-H2S-DOXO was placed in a dialysis bag, and the dialysis bag, sealed at the ends, was immersed into 40 mL of phosphate buffered saline (PBS, pH 7.4) at 37 °C stirring at 100 rpm. At predetermined time intervals, 1 mL PBS was withdrawn and replaced with an equal volume of fresh PBS. Release was monitored for 5 h. The overtime released H2S-DOXO was analyzed by RP-HPLC. As a reference, a 20% propylene glycol aqueous solution of H2S-DOXO was used.
# [16] = H2S-DOXO stability in solvents (RP-HPLC); assay type: physicochemical; conditions: 30-day storage at 4 °C, vs t0 (100%)
# Procedure: The chemical stability of H2S-DOXO in water/acetonitrile 60/40 v/v (mobile phase for HPLC analysis) and in methanol (solvent used for extraction from NPs to determining EE%) was tested by RP-HPLC after 30-day storage (t30). In Table 2, the stability was expressed as a percentage of residual concentration at t30 compared with the concentration at t0 (100%).
# H2S-DOXO stability in water/acetonitrile (60/40 v/v ratio) and methanol was determined after 30-day (t30) storage at 4 °C following the drug concentration over time by RP-HPLC and comparing it with the concentration at t0, assuming it as 100%.
# [17] = H2S-DOXO stability in the presence of microemulsion ingredients (RP-HPLC); assay type: physicochemical; conditions: water/acetonitrile 60/40 v/v; for Residual Concentration % t24: 24 h
# Procedure: The chemical stability of H2S-DOXO in water/acetonitrile 60/40 v/v in the presence of µE ingredients, at the same ratio (w/w) used in the µE, was tested to select the suitable ingredients and to ensure the integrity of H2S-DOXO into the formulation. In Table 3, the stability at t0 and t24 h (t24) is expressed as percent of residual concentration in the presence of ingredients compared with that without ingredients at t0 (100%).
# H2S-DOXO stability in water/acetonitrile (60/40 v/v ratio) in the presence of NaTC, NaGC, lecithin (phosphatidylcoline 95–98%), ST, CTAB, and Cremophor®RH60 was determined at t0 and after 24 h (t24) by RP-HPLC comparing the drug concentration with that in water/acetonitrile solution at t0, assuming it as 100%.
# [18] = tested on: DU-145 prostate cancer cell line; design: method as in PMID 29607467; conditions: androgen-independent, DOXO-resistant DU-145; cited from earlier work
# [19] = 3-week injection, nude mice with subcutaneous DU-145 cells
smiles,measurement,setting,value
"COc1cccc2c1C(=O)c1c(O)c3c(c(O)c1C2=O)C[C@@](O)(C(=O)CO)C[C@@H]3O[C@H]1C[C@H](N)[C@H](O)[C@H](C)O1 [DOXO, doxorubicin hydrochloride]","acute toxicity, release of LDH",U-2OS/DX580 cells [1],devoid of any cytotoxic effects
same,"acute toxicity, release of LDH",U-2OS cells [2],comparable
same,"acute toxicity, release of LDH",MCF-7 cells [3],comparable
same,"acute toxicity, release of LDH",MDA-MB-231 cells [4],devoid of any cytotoxic effects
same,"subacute toxicity, reduced cell viability",JC cells [5],ineffective
same,"subacute toxicity, reduced cell viability",K7M2 cells [6],ineffective
same,"subacute toxicity, reduced cell viability",U-2OS/DX580 cells [7],ineffective
same,"subacute toxicity, reduced cell viability",MDA-MB-231 cells [8],ineffective
same,tumor growth,K7M2 tumor; K7M2 tumors (CD44- and Pgp-overexpressing),neither DOXO nor Caelyx® reduced the growth of these tumors
same,apoptosis / caspase-3 activation in the tumor,K7M2 tumor; K7M2 tumors,nor did they induce apoptosis in the tumor
same,tolerability / safety profile,"DU-145 cells; mouse, in vivo, sc",associated with weight loss and cardiotoxicity
same,"acute toxicity, release of LDH",JC cells [9],devoid of any cytotoxic effects
same,"acute toxicity, release of LDH",K7M2 cells [10],devoid of any cytotoxic effects
"COc1cccc2c1C(=O)c1c(O)c3c(c(O)c1C2=O)C[C@@](O)(C(=O)COC(=O)c1ccc(-c2ssc(=S)c2-c2ccccc2)cc1)C[C@@H]3O[C@H]1C[C@H](N)[C@H](O)[C@H](C)O1 [H2S-DOXO, doxorubicin 14-[4-(4-phenyl-5-thioxo-5H-[1,2]dithiol-3-yl)]-benzoate]","acute toxicity, release of LDH",U-2OS/DX580 cells [1],induced a significant release of LDH
same,"acute toxicity, release of LDH",U-2OS cells [2],comparable
same,"acute toxicity, release of LDH",MCF-7 cells [3],comparable
same,"acute toxicity, release of LDH",MDA-MB-231 cells [4],induced a significant release of LDH
same,t1/2 of hydrolysis,[11],2.8 h
same,"subacute toxicity, reduced cell viability",JC cells [5],significantly more effective than DOXO
same,"subacute toxicity, reduced cell viability",K7M2 cells [6],significantly more effective than DOXO
same,"subacute toxicity, reduced cell viability",U-2OS/DX580 cells [7],significantly more effective than DOXO
same,"subacute toxicity, reduced cell viability",U-2OS cells [12],did not offer any further advantage compared to DOXO
same,"subacute toxicity, reduced cell viability",MCF-7 cells [13],did not offer any further advantage compared to DOXO
same,"subacute toxicity, reduced cell viability",MDA-MB-231 cells [8],significantly more effective than DOXO
same,Solubility,[14]; benzyl alcohol,1400 ± 700 µg/mL
same,Solubility,[14]; methanol,3820 ± 300 µg/mL
same,Solubility,[14]; pH 7.2 phosphate buffer (0.1 M),30 ± 10 µg/mL
same,Solubility,[14]; propylene glycol,2830 ± 300 µg/mL
same,Solubility,[14]; water/acetonitrile (60/40 v/v),3400 ± 500 µg/mL
same,H2S-DOXO release in 5 h,[15],~100%
same,Residual Concentration % t30,[16]; methanol,98.7%
same,Residual Concentration % t30,[16]; water/acetonitrile (60/40 v/v),97.3%
same,percentage of apoptotic cells,DU-145 cells; [19],an increase in the percentage of apoptotic cells
same,reduction in tumor volume,DU-145 cells; [19],60%
same,tolerability / safety profile,DU-145 cells; nude mice with subcutaneous DU-145 cells,well tolerated and had a better safety profile
same,Residual Concentration % t24,[17]; in presence of CTAB,100%
same,Residual Concentration % t0,[17]; in presence of CTAB,100%
same,Residual Concentration % t24,[17]; in presence of Cremophor RH60,0%
same,Residual Concentration % t0,[17]; in presence of Cremophor RH60,5%
same,Residual Concentration % t24,[17]; in presence of Epikuron 200,100%
same,Residual Concentration % t0,[17]; in presence of Epikuron 200,100%
same,Residual Concentration % t24,[17]; in presence of NaGC,98%
same,Residual Concentration % t0,[17]; in presence of NaGC,100%
same,Residual Concentration % t24,[17]; in presence of NaTC,0%
same,Residual Concentration % t0,[17]; in presence of NaTC,34%
same,Residual Concentration % t24,[17]; in presence of ST,14%
same,Residual Concentration % t0,[17]; in presence of ST,44%
same,cytotoxicity,[18],high cytotoxicity
same,intracellular accumulation,[18],good intracellular accumulation
same,"acute toxicity, release of LDH",JC cells [9],induced a significant release of LDH
same,"acute toxicity, release of LDH",K7M2 cells [10],induced a significant release of LDH

# — article PMC9569649, “Naked and Decorated Nanoparticles Containing H2S-Releasing Doxorubicin: Preparation, Characterization and Assessment of Their Antitumoral Efficiency on Various Resistant Tumor Cells” (International Journal of Molecular Sciences, 2022)
